Among the test systems are BT-549 breast; K-562 leukemia; MALME-3M melanoma; NCI-H23 lung; NCI-H460 lung; SF-295 CNS; SK-MEL-5 melanoma; SNB-75 CNS; T-47D breast; MCF7 breast.
What all share (assay): DTP human tumour cell line panel, 48 h

Results on 13 molecules are retold here after PubChem BioAssay (NCI).

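How tested: cells in 96-well plates exposed to compound for 48 hours at five concentrations. The concentration for 50% growth inhibition is given as GI50. TGI denotes the concentration required for complete inhibition of growth.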 Where only a bound is given, the exact number is not on record here.

A word on the TGI: it is the concentration at which net growth stops. Higher therefore signals less potent growth arrest. Turning to `CC(=O)NC1C(OCc2ccccc2)OC(CO)C(O)C1OCC(=O)N[C@@H](C)C(=O)N[C@H](CCC(=O)NCCCNc1ccc([N+](=O)[O-])c2[nH]c3ccccc3c(=O)c12)C(N)=O` (stereo partly drawn), the total growth inhibition concentration (TGI) is 96.9 µM in the assay with BT-549 breast; more than 100 µM with K-562 leukemia; more than 100 µM in the assay with MALME-3M melanoma; more than 100 µM with NCI-H23 lung; more than 100 µM with NCI-H460 lung; more than 100 µM in the assay with SF-295 CNS. Moreover, the TGI in the assay on SK-MEL-5 melanoma, with SNB-75 CNS and in the assay on T-47D breast was more than 100 µM in each case.
Take `COc1ccc2c(c1)CCC/C2=N\NS(=O)(=O)c1c(C)cc(C)cc1C`: the total growth inhibition concentration (TGI) was 77.2 µM with BT-549 breast; 41.6 µM in the assay with K-562 leukemia; 48.8 µM with MALME-3M melanoma; more than 100 µM in the assay with MCF7 breast; 72.4 µM in the assay with NCI-H23 lung; 95.3 µM with NCI-H460 lung. Also, the TGI in the assay on SF-295 CNS came to 94.6 µM; in the assay with SK-MEL-5 melanoma it was 33.4 µM; with SNB-75 CNS, 58.9 µM; in the assay on T-47D breast, 53.9 µM.
With `COc1ccccc1NC(=S)N/N=C/c1cccc(C)n1`, the TGI in the assay on BT-549 breast is more than 100 µM; with K-562 leukemia, more than 100 µM; in the assay with MALME-3M melanoma, more than 81.2 µM; in the assay on MCF7 breast it was more than 100 µM; in the assay on NCI-H23 lung, more than 100 µM; with NCI-H460 lung, more than 85.5 µM. In addition, the TGI was more than 100 µM in the assay with SF-295 CNS, 47.3 µM with SK-MEL-5 melanoma, 53.5 µM in the assay with SNB-75 CNS and more than 100 µM in the assay with T-47D breast.
Regarding `O=C(Nc1ccc2ccccc2c1)c1cc2cc(CCl)ccc2oc1=O`, the TGI in the assay with BT-549 breast, in the assay on K-562 leukemia, with MALME-3M melanoma, in the assay with MCF7 breast, in the assay on NCI-H23 lung and in the assay on NCI-H460 lung was more than 100 µM each time. Further, the TGI in the assay on SF-295 CNS was more than 100 µM; with SK-MEL-5 melanoma it was more than 100 µM; in the assay on SNB-75 CNS, 38.5 µM; in the assay on T-47D breast, more than 100 µM.
As to `c1cc2c(cc1C1=NCCN1)c1cc(C3=NCCN3)ccc1n2CC1CCCCC1`, the concentration for total growth inhibition (TGI) with BT-549 breast was 41.9 µM; in the assay on K-562 leukemia, more than 100 µM; in the assay with MALME-3M melanoma, 23.8 µM; with NCI-H23 lung it was 88.9 µM; in the assay on NCI-H460 lung, 34.5 µM; with SF-295 CNS, more than 100 µM. The TGI in the assay with SK-MEL-5 melanoma was determined as 36.2 µM; in the assay with SNB-75 CNS, 30.6 µM; in the assay on T-47D breast it was 84.7 µM.
As to `CCOC(=O)C(C/C=C/CO)N(C)C(=O)OC(C)(C)C` (stereo not drawn), the TGI in the assay with BT-549 breast, in the assay on K-562 leukemia, in the assay with MCF7 breast, in the assay on NCI-H23 lung, with NCI-H460 lung and in the assay with SF-295 CNS was more than 100 µM in each case. The TGI with SK-MEL-5 melanoma, in the assay with SNB-75 CNS and in the assay with T-47D breast was more than 100 µM throughout.
Regarding `O=c1[nH]c2ccc([N+](=O)[O-])cc2nc1/C=C(\O)c1ccccc1`, the TGI with BT-549 breast was more than 100 µM; in the assay on K-562 leukemia it was more than 100 µM; with MALME-3M melanoma it was more than 100 µM; with MCF7 breast it was more than 100 µM; in the assay with NCI-H23 lung, 73.3 µM; with NCI-H460 lung it was 16.5 µM. The TGI is more than 100 µM in the assay with SF-295 CNS, more than 100 µM with SK-MEL-5 melanoma, 58.3 µM with SNB-75 CNS and more than 100 µM with T-47D breast.
For `COC(=O)C(NC(=O)OC(C)(C)C)P(=O)(OC)OC` (stereo not drawn), the total growth inhibition concentration (TGI) in the assay on BT-549 breast, in the assay with K-562 leukemia, in the assay on MALME-3M melanoma, in the assay on MCF7 breast, in the assay on NCI-H23 lung and with SF-295 CNS was more than 100 µM in each case. Further, the concentration for total growth inhibition (TGI) in the assay with SK-MEL-5 melanoma and with T-47D breast was more than 100 µM throughout.
Take `NN/C(=N\S(=O)(=O)c1ccc(S(=O)(=O)c2ccccc2)s1)Nc1ccc(Cl)cc1`: the concentration for total growth inhibition (TGI) is more than 100 µM with BT-549 breast; more than 100 µM with K-562 leukemia; more than 100 µM with MCF7 breast; 80 µM in the assay with NCI-H23 lung; 65.7 µM with NCI-H460 lung; more than 100 µM in the assay with SF-295 CNS. In addition, the total growth inhibition concentration (TGI) in the assay on SK-MEL-5 melanoma came to 46.2 µM; in the assay on T-47D breast, 59.3 µM.
In the case of `CC(C)(C)[Si](C)(C)OC[C@H](/C=C\CCCC(=O)O)NC1(c2ccccc2)c2ccccc2-c2ccccc21`, the TGI with BT-549 breast was 91.6 µM; in the assay with K-562 leukemia, 45.5 µM; in the assay on MCF7 breast it was 34.5 µM; in the assay with NCI-H23 lung, 63.2 µM; in the assay on NCI-H460 lung it was 59.8 µM; with SF-295 CNS, more than 100 µM. In addition, the concentration for total growth inhibition (TGI) in the assay on SK-MEL-5 melanoma was 23.3 µM; in the assay on SNB-75 CNS it was more than 100 µM; in the assay with T-47D breast, more than 100 µM.
As for `COc1ccc(-n2cnc3c(NC(Cc4ccccc4)C(=O)O)ncnc32)cc1` (stereo not drawn), the concentration for total growth inhibition (TGI) with BT-549 breast, in the assay on K-562 leukemia, in the assay with MCF7 breast, in the assay on NCI-H23 lung, with NCI-H460 lung and with SF-295 CNS was more than 100 µM each time. The TGI in the assay on SK-MEL-5 melanoma, in the assay with SNB-75 CNS and with T-47D breast was more than 100 µM each time.
As usually defined, the GI50 is the concentration giving 50% growth inhibition. With `COc1ccc(C2=NC(c3ccc(Cl)cc3)C(c3ccc(Cl)cc3)N2C(=O)N2CCNC(=O)C2)c(OC(C)C)c1` (stereo not drawn), the GI50 was 2.03 µM with BT-549 breast; 3.47 µM in the assay on K-562 leukemia; 2.06 µM in the assay on MCF7 breast; 1.83 µM with NCI-H23 lung; 1.95 µM in the assay on NCI-H460 lung; 1.81 µM in the assay on SF-295 CNS. Also, the results for the GI50 with SK-MEL-5 melanoma, with SNB-75 CNS and in the assay on T-47D breast were 1.76 µM, 2.37 µM and 3.67 µM, respectively. Moreover, the concentration for total growth inhibition (TGI) in the assay with BT-549 breast is 4.03 µM; in the assay with K-562 leukemia, more than 10 µM; in the assay on MCF7 breast, 4.16 µM; in the assay on NCI-H23 lung, 3.45 µM; with NCI-H460 lung it was 3.82 µM; with SF-295 CNS, 3.38 µM. Moreover, the TGI in the assay with SK-MEL-5 melanoma was 3.39 µM; in the assay on SNB-75 CNS it was 4.8 µM; with T-47D breast, more than 10 µM.
`O=c1cc(N2CCCC2)[nH]c(=O)n1-c1ccc(Cl)cc1`: the total growth inhibition concentration (TGI) in the assay on BT-549 breast, with K-562 leukemia, in the assay with MALME-3M melanoma, with MCF7 breast, with NCI-H23 lung and in the assay on NCI-H460 lung was more than 100 µM throughout. The TGI with SF-295 CNS, in the assay on SNB-75 CNS and in the assay with T-47D breast was more than 100 µM each time.
